Measured values from ChEMBL document CHEMBL1201862, “PubChem BioAssay data set” (2004).
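Exposure lasted 48 hours, with cells grown in 96-well plates and compounds tested at five concentrations. Abbreviation: GI50, concentration required for 50% inhibition of growth.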 Calls of active or inactive are those of the source. Rule as the data show it: active = GI50 up to about 1.1 µM and inactive = higher.

How the values were obtained:
Test in all cases: NCI-60 cell line screen, 48 h
TK-10 = system: TK-10
RPMI-8226 = system: RPMI-8226
K562 = system: K562
CAKI-1 = system: CAKI-1
HT-29 = system: HT-29
EKVX = system: EKVX
HL-60 = system: HL-60
LOX IMVI = system: LOX IMVI
SK-OV-3 = system: SK-OV-3
OVCAR-4 = system: OVCAR-4
DMS-273 = system: DMS-273
SNB-78 = system: SNB-78
OVCAR-8 = system: OVCAR-8
HCC 2998 = system: HCC 2998
XF498 = system: XF498
NCI-H460 = system: NCI-H460
RXF 393 = system: RXF 393
NCI-H522 = system: NCI-H522
HOP-92 = system: HOP-92
KM12 = system: KM12
SF-539 = system: SF-539
HOP-18 = system: HOP-18
HOP-62 = system: HOP-62
COLO 205 = system: COLO 205
A549 = system: A549
SW-620 = system: SW-620
SK-MEL-5 = system: SK-MEL-5
UACC-62 = system: UACC-62
HCT-116 = system: HCT-116
DMS-114 = system: DMS-114
786-0 = system: 786-0
A498 = system: A498
NCI-H23 = system: NCI-H23
ACHN = system: ACHN
OVCAR-3 = system: OVCAR-3
HCT-15 = system: HCT-15
Malme-3M = system: Malme-3M
M19-MEL = system: M19-MEL
CCRF-CEM = system: CCRF-CEM
UO-31 = system: UO-31
SK-MEL-2 = system: SK-MEL-2
KM-20L2 = system: KM-20L2
RXF 631 = system: RXF 631
SK-MEL-28 = system: SK-MEL-28
U-251 = system: U-251
NCI-H226 = system: NCI-H226
IGROV-1 = system: IGROV-1
OVCAR-5 = system: OVCAR-5
LXFL 529 = system: LXFL 529
SNB-75 = system: SNB-75
UACC-257 = system: UACC-257
DLD-1 = system: DLD-1
SF-295 = system: SF-295
SNB-19 = system: SNB-19
M14 = system: M14
SF-268 = system: SF-268

CC(O)C(N/C=C1/N=C(c2ccccc2)OC1=O)C(=O)O (stereo unspecified)
GI50 (TK-10): > 100 µM (inactive) | GI50 (RPMI-8226): > 100 µM (inactive) | GI50 (K562): > 100 µM (inactive) | GI50 (CAKI-1): > 100 µM (inactive) | GI50 (HT-29): > 100 µM (inactive) | GI50 (EKVX): > 100 µM (inactive) | GI50 (HL-60): 10 µM (inactive) | GI50 (LOX IMVI): > 100 µM (inactive) | GI50 (SK-OV-3): > 100 µM (inactive) | GI50 (OVCAR-4): > 100 µM (inactive) | GI50 (DMS-273): > 100 µM (inactive) | GI50 (SNB-78): > 100 µM (inactive) | GI50 (OVCAR-8): > 100 µM (inactive) | GI50 (HCC 2998): > 100 µM (inactive) | GI50 (XF498): > 100 µM (inactive) | GI50 (NCI-H460): > 100 µM (inactive) | GI50 (RXF 393): > 100 µM (inactive) | GI50 (NCI-H522): > 100 µM (inactive) | GI50 (HOP-92): > 100 µM (inactive) | GI50 (KM12): > 100 µM (inactive) | GI50 (SF-539): > 100 µM (inactive) | GI50 (HOP-18): > 100 µM (inactive) | GI50 (HOP-62): > 100 µM (inactive) | GI50 (COLO 205): > 100 µM (inactive) | GI50 (A549): > 100 µM (inactive) | GI50 (SW-620): > 100 µM (inactive) | GI50 (SK-MEL-5): > 100 µM (inactive) | GI50 (UACC-62): > 100 µM (inactive) | GI50 (HCT-116): > 100 µM (inactive) | GI50 (DMS-114): > 100 µM (inactive) | GI50 (786-0): > 100 µM (inactive) | GI50 (A498): > 100 µM (inactive) | GI50 (NCI-H23): > 100 µM (inactive) | GI50 (ACHN): > 100 µM (inactive) | GI50 (OVCAR-3): > 100 µM (inactive) | GI50 (HCT-15): 10 µM | GI50 (Malme-3M): > 100 µM (inactive) | GI50 (M19-MEL): > 100 µM (inactive) | GI50 (CCRF-CEM): > 100 µM (inactive) | GI50 (UO-31): > 100 µM (inactive) | GI50 (SK-MEL-2): > 100 µM (inactive) | GI50 (KM-20L2): > 100 µM (inactive) | GI50 (RXF 631): > 100 µM (inactive) | GI50 (SK-MEL-28): > 100 µM (inactive) | GI50 (U-251): > 100 µM (inactive) | GI50 (NCI-H226): > 100 µM (inactive) | GI50 (IGROV-1): > 100 µM (inactive) | GI50 (OVCAR-5): > 100 µM (inactive) | GI50 (LXFL 529): > 100 µM (inactive) | GI50 (SNB-75): > 100 µM (inactive) | GI50 (UACC-257): > 100 µM (inactive) | GI50 (DLD-1): > 100 µM (inactive) | GI50 (SF-295): > 100 µM (inactive) | GI50 (SNB-19): > 100 µM (inactive) | GI50 (M14): > 100 µM (inactive) | GI50 (SF-268): > 100 µM (inactive)
